# Laboratory results reported in patent US20230339882A1, “SHP2 INHIBITOR AND COMPOSITION AND APPLICATION THEREOF” (Betta Pharmaceuticals Co., Ltd., priority 2020, published 2023).
# How the values were obtained:
# [1] = In vitro metabolic stability in liver microsomes, monkey; assay type: in vitro ADME
# [2] = In vitro metabolic stability in liver microsomes, human; assay type: in vitro ADME
# Procedure: (§1) Example D: In Vitro Metabolic Stability of Human and Rat Liver Microsomes Test Buffer Preparation
# (§2) Dissolve 1900 mg of MgCl2 in 400 mL of ultrapure water.
# (§3) Dissolve 17.42 g K2HPO4 and 13.65 g KH2PO4 into 1000 mL of ultrapure water, respectively. Mix a certain proportion of K2HPO4 and KH2PO4 to adjust the pH to 7.30 ± 0.10.
# (§4) Prepare a solution of 10 ng/mL labetalol and 10 ng/mL glyburide in acetonitrile and store at 4° C.
# (§5) Prepare 10 mM verapamil (positive control) and test article stock solutions in DMSO. Then, with MeOH/ACN/H2O solution (1:1:2 by volume), diluted to 50 µM and 200 µM working solutions, respectively.
# (§6) experiment procedure: • 1) Add 40 µL MgCl2 and 306 µL PBS to 96 wells (set blank control group, positive control group, test compound sample group, and negative control group at the same time) • 2) Add 4 µL of compound working solution to each well (4 µL of PBS buffer for blank group) (Note: the final concentration of DMSO volume in the system is ≤ 0.5%) • 3) Add 10 µL of liver microsomes (concentration: 20 mg/mL) to each well, mix well, and pre-incubate at 37° C. for 10 minutes. • 4) Add 40 µL of 10 mM NADPH working solution to each well to start the reaction (add equal volume of PBS buffer for blank control group and negative control group respectively), the total reaction volume is 400 µL. • 5) Take out 50 µL samples from the above reaction solution at 0, 5, 15, and 45 minutes, and add 400 µL of reaction stop solution to stop the reaction • 6) Shake the sample after the termination of the reaction on a shaker for 5 minutes. • 7) Centrifuge the sample at 3200 rcf for 10 minutes. After the centrifugation is complete, transfer 50 µL of the supernatant to 200 µL of H2O for dilution for LC-MS/MS analysis.
# (§7) Calculations of t½ and CLint are performed using the first-order kinetic equations: […]
# (§8) where k represents the elimination constant, calculated from a log-linear plot of percentage remaining versus time. t½ represents half-life. Cprotein is the concentration of liver microsomes.
# [3] = In vitro metabolic stability in liver microsomes, mouse; assay type: in vitro ADME
# [4] = In vitro metabolic stability in liver microsomes, dog; assay type: in vitro ADME
# [5] = In vitro metabolic stability in liver microsomes, rat; assay type: in vitro ADME
# Procedure: as §1, §2, §3, §4, §5, §6, §7, §8
# SHP2 = SHP2 (Homo sapiens (Human), UniProt Q06124); experiment: SHP2 allosteric inhibitory enzyme activity assay (DiFMUP fluorescence); assay type: biochemical; settings: read-out: SHP2 enzymatic activity IC50
# Source text: Example A: SHP2 Allosteric Inhibitory Enzyme Activity Assay
# SHP2 is allosterically activated by binding of a bis-tyrosyl-phosphorylated peptide to its Src homology 2 (SH2) domain. This later activation step results in the release of the autoinhibitory interface of SHP2, which in turn activates the SHP2 protein tyrosine phosphatase (PTP) and is available for substrate recognition and reaction catalysis. The catalytic activity of SHP2 was monitored using the surrogate DiFMUP in a rapid fluorescence assay format.
# experiment procedure: • (1) Compound preparation: • The compounds of the present invention (10 mM stock solution) were diluted to appropriate times with 100% DMSO, and the final test concentrations of the compounds of the present invention were 10 µM, 3.3333 µM, 1.1111 µM, 0.3704 µM, 0.1235 µM, 0.0412 µM, 0.0137 µM, 0.0046 µM, 0.0015 µM, 0.00 µM; • (2) Prepare the enzyme reaction working solution: • Perform SHP2 enzymatic assays in 96-well black polystyrene plates (flat bottom, low flange, non-binding surface) (Perki Elmer, Cat#6005270) at room temperature using a final reaction volume of 50 µL and the following assay buffer conditions: 60 mM HEPES, 75 mM NaCl, 75 mM KCl, 0.05% BRIJ-35, 1 mM EDTA, 5 mM DTT. • (3) Enzyme-catalyzed reaction and data monitoring: • Add the compound of the present invention to the corresponding 96-well plate, and set the blank test well without compound and enzyme only with buffer. Thaw SHP2 Activating Peptide (IRS1_pY1172(dPEG8)pY1222) on ice, add 25 µM to each well, then add 0.2 ng of SHP2 protein sample to the corresponding well plate and incubate at room temperature for 1 hour. The surrogate substrate DiFMUP (Invitrogen, Cat #D6567) was added to the reaction and allowed to react for 1 hour at room temperature. Fluorescence signals were monitored using a microplate reader (Envision, Perki Elmer) using excitation and emission wavelengths of 340 nm and […], respectively. • (4) Data analysis: • Calculation Formula: • [formula]
# Among them: Conversion_sample is the conversion rate reading of the sample; Conversion_min is the average value of blank control wells, representing the conversion rate readings of wells without enzymatic activity; Conversion_max is the mean ratio of positive control wells, representing the conversion rate readings of wells without compound inhibition. The log(inhibitor) vs. response-Variable slope of the analysis software GraphPad Prism was used to fit the dose-response curve, and the IC50 value of the compound for the enzymatic activity was calculated.
# leukemia cells MV-4-11 = experiment: Cell proliferation assay, CELL TITER-GLO (CTG) luminescence, MV-4-11; assay type: cell-based
# Procedure: (§9) Example B: Cell Proliferation Assay
# (§10) The effects of the compounds of the invention on the proliferation of leukemia cells MV-4-11 and lung cancer cells NCI-H358 were evaluated using in vitro cell assays. The detection method used in the experiment is the CELL TITER-GLO (CTG) luminescence method, which can detect the number of viable cells by quantifying ATP. Because ATP participates in a variety of enzymatic reactions in vivo, it is an indicator of the metabolism of living cells, and its content directly reflects the number and state of cells. During the experiment, CellTiter-Glo™ reagent was added to the cell culture medium to measure the luminescence value. The value is proportional to the amount of ATP, and ATP is positively related to the number of living cells, so the cell viability can be examined by detecting the ATP content.
# (§11) experiment procedure: • (1) Cell plating: • Take a bottle of MV-4-11 cells in logarithmic growth phase, resuspend the cells by centrifugation and count them. After adjusting the cell density, they were seeded into a 96-well plate (Corning #3917). After culturing in a 5% CO2 incubator for 24 hrs, the compound of the present invention was added for treatment; • Take a bottle of NCI-H358 cells in logarithmic growth phase, digest and resuspend the cells, count them, adjust the cell density, and inoculate them into a 96-well transparent ultra-low adsorption cell culture plate (Corning #3474), inoculate 2000 cells per well. The plate was placed in an incubator at 37° C. and 5% CO2 for 24 hrs, and then the compound of the present invention was added for treatment; • (2) Cell compound treatment: • An appropriate amount of the compound of the present invention was prepared for cell treatment. The final concentration of the compound from high to low was 1000 nM, 333.3 nM, 111.1 nM, 37.04 nM, 12.35 nM, 4.115 nM, 1.372 nM, 0.4572 nM, 0.1524 nM, and 0 nM. The plate was placed in a 37° C., 5% CO2 incubator for 120 hrs. Only adding medium without cell wells was set as the blank group; the group with compound concentration of 0 nM was the zero-adjusting group. • (3) CTG detection: • After NCI-H358 cells were cultured for 96 hrs, 50 µL of CellTiter-Glo® Luminescent Cell Viability Assay solution was added to each well, shaken gently for 2 mins, and incubated at room temperature for 10 mins. The cell reaction system was transferred to a white-bottomed 96-well plate. Read the detection value of each well on a multi-function microplate reader. • After MV-4-11 cells were cultured for 120 hrs, 50 µL of CellTiter-Glo® Luminescent Cell Viability Assay solution was added to each well, gently shaken for 2 mins, and incubated at room temperature for 10 mins. Check the value. • (4) Data analysis: • Calculate the inhibition rate from the luminescence value readings, • [formula]
# (§12) The log(inhibitor) vs. response-Variable slope of GraphPad Prism was fitted to dose-response curves and IC50s of compounds that inhibited cell proliferation were calculated.
# [6] = test system: lung cancer cells NCI-H358; experiment: Cell proliferation assay, CELL TITER-GLO (CTG) luminescence, NCI-H358; assay type: cell-based; settings: cultured for 96 hrs
# Procedure: as §9, §10, §11, §12
# [7] = Homo sapiens, MV4-11, cultured for 120 hrs
# [8] = Homo sapiens, NCI-H358, ultra-low adsorption plate
Molecule,IC50 (SHP2) [nM],IC50 (leukemia cells MV-4-11; [7]) [nM],"IC50 [6, 8] [nM]",further results
"Nc1ncc(OCC#Cc2cnc(N3CCC4(CC3)Cc3ccccc3[C@H]4N)c(CO)n2)cn1 [Compound A19, (S)-(3-(1-amino-1,3-dihydrospiro[indene-2,4′-piperidin]-1′-yl)-6-(3-( (2-Aminopyrimidine-5-yl)oxy)prop-1-yn-1-yl)pyrazin-2-yl)methanol]",–,–,–,"microsomal CLint at 2 µM ([1]; pH 7.3, read-out: CLint (µL/min/mg protein) monkey): 21.2 µL/min/mg; microsomal CLint at 2 µM ([2]; pH 7.3, read-out: CLint (µL/min/mg protein) human): 8.2 µL/min/mg; microsomal CLint at 2 µM ([3]; pH 7.3, read-out: CLint (µL/min/mg protein) mouse): 21.4 µL/min/mg; microsomal CLint at 2 µM ([4]; dog, microsomes, pH 7.3): 18.3 µL/min/mg; microsomal CLint at 2 µM ([5]; pH 7.3, read-out: CLint (µL/min/mg protein) rat): 31.6 µL/min/mg"
"Cc1cc(OCC#Cc2cnc(N3CCC4(CC3)Cc3ccccc3[C@H]4N)c(CO)n2)ccc1C(N)=O [Compound A74, (S)-4-((3-(5-(1-amino-1,3-dihydrospiro[indene-2,4′-piperidin]-1′-yl)-6-(hydroxymethyl)pyrazin-2-yl)prop-2-yn-1-yl)oxy)-2-methylbenzamide]",1.1,1.7,6.4,–
"(S)-4-((3-(5-(1-amino-1,3-dihydro spiro[indene-2,4′-piperidin]-1′-yl)-6-(hydroxymethyl)pyrazin-2-yl)pr op-2-yn-1-yl)oxy)-N-picoline amide [Compound A40]",–,–,–,CLint (µL/min/mg protein) monkey [1]: 15.5 µL/min/mg protein; CLint (µL/min/mg protein) human [2]: 11.0 µL/min/mg protein; CLint (µL/min/mg protein) mouse [3]: 11.0 µL/min/mg protein; CLint (µL/min/mg protein) dog ([4]; dog liver microsomes): 7.8 µL/min/mg protein; CLint (µL/min/mg protein) rat [5]: 11.7 µL/min/mg protein
"CC(=O)Nc1cccc(OCC#Cc2cnc(N3CCC4(CC3)Cc3ccccc3[C@H]4N)c(CO)n2)c1 [Compound A04, (S)-N-(3-((3-(5-(1-amino-1,3-dihydrospiro[indene-2,4′-piperidin]-1′-yl)-6-(hydroxymethyl)pyrazin-2-yl)prop-2-yn-1-yl)oxy)phenyl)acetamide]",2.9,3.6,4,–
"COc1cc(OCC#Cc2cnc(N3CCC4(CC3)Cc3ccccc3[C@H]4N)c(CO)n2)ccn1 [Compound A49, (S)-(3-(1-amino-1,3-dihydrospiro[indene-2,4′-piperidin]-1′-yl)-6-(3-((2-methoxypyridine-4-yl)oxy)prop-1-yn-1-yl)pyrazin-2-yl)methanol]",1.4,6.7,8.5,–
"CC(=O)N1CCN(c2ccc(OCC#Cc3cnc(N4CCC5(CC4)Cc4ccccc4[C@H]5N)c(CO)n3)cc2)CC1 [Compound A21, (S)-1-(4-(4-(3-(5-(1-amino-1,3-dihydrospiro [indene-2,4 ‘-piperidine]-1′-yl) -6-(hydroxymethyl)pyrazin-2-yl)prop-2-yn-1-yl)oxy)piperazin-1-yl)ethane-1-one]",2.1,–,–,IC50 (leukemia cells MV-4-11; cultured for 120 hrs): 11 nM; IC50 ([6]; ultra-low adsorption plate): 12 nM
"N[C@@H]1c2ccccc2CC12CCN(c1ncc(C#CCOc3ccc4c(c3)CCNC4=O)nc1CO)CC2 [Compound A52, (S)-6-((3-(5-(1-amino-1,3-dihydrospiro[indene-2,4′-piperidin]-1′-yl)-6-(hydroxymethyl)pyrazin-2-yl)prop-2-yn-1-yl)oxy)-3,4-dihydroisoquinolin-1(2H)-one]",1.6,1.5,4.6,–
"(S)-(3-(1-amino-1,3-dihydrospiro[ indene-2,4′-piperidin]-1′-yl)-6-(3-( 4-morpholinoloxy)prop-1-yn-1-yl )pyrazin-2-yl)methanol [Compound A20]",3.8,–,–,IC50 (leukemia cells MV-4-11; cultured for 120 hrs): 12 nM; IC50 ([6]; ultra-low adsorption plate): 14 nM
Nc1cccc(OCC#Cc2cnc(N3CCC4(CC3)Cc3ccccc3[C@H]4N)c(CO)n2)c1 [Compound A03],1.1,–,–,IC50 (leukemia cells MV-4-11; cultured for 120 hrs): 1.5 nM; IC50 ([6]; ultra-low adsorption plate): 2.5 nM
"N[C@@H]1c2ccccc2CC12CCN(c1ncc(C#CCOc3ccccc3)nc1CO)CC2 [Compound A01, (S)-(3-(1-amino-1,3-dihydrospiro [indene-2,4′-piperidine]-1′-yl)-6-(3-phenoxyprop-1-yn-1-yl)pyrazin-2-yl)methanol]",1.2,2.6,7.3,–
"N[C@@H]1c2ccccc2CC12CCN(c1ncc(C#CCOc3ccc(O)cn3)nc1CO)CC2 [Compound A75, (S)-6-((3-(5-(1-amino-1,3-dihydrospiro[indene-2,4′-piperidin]-1′-yl)-6-(hydroxymethyl)pyrazin-2-yl)prop-2-yn-1-yl)oxy)pyridin-3-ol]",7.8,7.3,78,–
